Source: PubChem BioAssay AID1918995 (Molecular Pharmacology Branch, DTP, NCI, 2023)
Each block holds one compound with its values, some of them ahead of it.

System: 324938-238-R-J1-PDC complex spheroid growth, % test/control
Assay: Anticancer human tumor 324938-238-R-J1-PDC patient-derived bladder carcinoma cell line growth inhibition [AhR]
Conditions: for IC50: curve of first compound; for viability, T/C: stronger effect = lower value
In short: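 Complex tumor spheroids co-cultured with HUVEC and human MSC stroma; AhR antagonists tested in combination with standard-of-care and investigational agents. Top concentration at or near clinical Cmax (else 10 microM), half-log dilutions; growth expressed as percent test/control.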

[1] = second compound 0.1 µM, first compound 0.0316 µM
[2] = second compound 0.1 µM, first compound 0.1 µM
[3] = second compound 0.1 µM, first compound 0.316 µM
[4] = second compound 0.1 µM, first compound 1 µM
[5] = second compound 0.316 µM, first compound 0.0316 µM
[6] = second compound 0.316 µM, first compound 0.1 µM
[7] = second compound 0.316 µM, first compound 0.316 µM
[8] = second compound 0.316 µM, first compound 1 µM
[9] = second compound 1 µM, first compound 0.0316 µM
[10] = second compound 1 µM, first compound 0.1 µM
[11] = second compound 1 µM, first compound 0.316 µM
[12] = second compound 1 µM, first compound 1 µM
[13] = second compound 3.16 µM, first compound 0.0316 µM
[14] = second compound 3.16 µM, first compound 0.1 µM
[15] = second compound 3.16 µM, first compound 0.316 µM
[16] = second compound 3.16 µM, first compound 1 µM
[17] = second compound 10 µM, first compound 0.0316 µM
[18] = second compound 10 µM, first compound 0.1 µM
[19] = second compound 10 µM, first compound 0.316 µM
[20] = second compound 10 µM, first compound 1 µM
[21] = second compound 0.1 µM, first compound 3.16 µM
[22] = second compound 0.1 µM, first compound 10 µM
[23] = second compound 0.316 µM, first compound 3.16 µM
[24] = second compound 0.316 µM, first compound 10 µM
[25] = second compound 1 µM, first compound 3.16 µM
[26] = second compound 1 µM, first compound 10 µM
[27] = second compound 3.16 µM, first compound 3.16 µM
[28] = second compound 3.16 µM, first compound 10 µM
[29] = second compound 10 µM, first compound 3.16 µM
[30] = second compound 10 µM, first compound 10 µM
[31] = second compound 0.1 µM, first compound 0.00949 µM
[32] = second compound 0.1 µM, first compound 0.03 µM
[33] = second compound 0.1 µM, first compound 0.0949 µM
[34] = second compound 0.1 µM, first compound 0.3 µM
[35] = second compound 0.316 µM, first compound 0.00949 µM
[36] = second compound 0.316 µM, first compound 0.03 µM
[37] = second compound 0.316 µM, first compound 0.0949 µM
[38] = second compound 0.316 µM, first compound 0.3 µM
[39] = second compound 1 µM, first compound 0.00949 µM
[40] = second compound 1 µM, first compound 0.03 µM
[41] = second compound 1 µM, first compound 0.0949 µM
[42] = second compound 1 µM, first compound 0.3 µM
[43] = second compound 3.16 µM, first compound 0.00949 µM
[44] = second compound 3.16 µM, first compound 0.03 µM
[45] = second compound 3.16 µM, first compound 0.0949 µM
[46] = second compound 3.16 µM, first compound 0.3 µM
[47] = second compound 10 µM, first compound 0.00949 µM
[48] = second compound 10 µM, first compound 0.03 µM
[49] = second compound 10 µM, first compound 0.0949 µM
[50] = second compound 10 µM, first compound 0.3 µM
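Also: spheroids exposed to agents for seven days before viability read.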

IC50 (second compound 0.1 µM): > 1 µM
IC50 (second compound 0.316 µM): > 1 µM
IC50 (second compound 1 µM): > 1 µM
IC50 (second compound 3.16 µM): > 1 µM
IC50 (second compound 10 µM): < 0.00316 µM
Compound: CC1COCCN1c1cc(-c2ccnn2C)c2ccnc(-c3ccn[nH]3)c2n1 (stereo not given) + Cc1cncc(-c2nc(NCCc3c[nH]c4ccccc34)c3ncn(C(C)C)c3n2)c1
viability, T/C (second compound 0.1 µM, first compound 0.00316 µM): 87.9%
viability, T/C (second compound 0.1 µM, first compound 0.01 µM): 123%
viability, T/C [1]: 112%
viability, T/C [2]: 89.6%
viability, T/C [3]: 81.2%
viability, T/C [4]: 54.9%
viability, T/C (second compound 0.316 µM, first compound 0.00316 µM): 121%
viability, T/C (second compound 0.316 µM, first compound 0.01 µM): 150%
viability, T/C [5]: 114%
viability, T/C [6]: 81.3%
viability, T/C [7]: 81.6%
viability, T/C [8]: 70.2%
viability, T/C (second compound 1 µM, first compound 0.00316 µM): 114%
viability, T/C (second compound 1 µM, first compound 0.01 µM): 122%
viability, T/C [9]: 137%
viability, T/C [10]: 88%
viability, T/C [11]: 72.2%
viability, T/C [12]: 53.3%
viability, T/C (second compound 3.16 µM, first compound 0.00316 µM): 67.2%
viability, T/C (second compound 3.16 µM, first compound 0.01 µM): 60.2%
viability, T/C [13]: 77.6%
viability, T/C [14]: 70.6%
viability, T/C [15]: 67.8%
viability, T/C [16]: 72.2%
viability, T/C (second compound 10 µM, first compound 0.00316 µM): 4.75%
viability, T/C (second compound 10 µM, first compound 0.01 µM): 5.66%
viability, T/C [17]: 2.57%
viability, T/C [18]: 2.16%
viability, T/C [19]: 2.35%
viability, T/C [20]: 5.11%

IC50 (second compound 0.1 µM): 8.95 µM
IC50 (second compound 0.316 µM): 7.37 µM
IC50 (second compound 1 µM): > 10 µM
IC50 (second compound 3.16 µM): > 10 µM
IC50 (second compound 10 µM): < 0.0316 µM
Compound: COc1ccc([C@@H](O)c2cc(-c3ncnc4cc(N5CCOCC5)ccc34)c(F)cc2Cl)nn1 + Cc1cncc(-c2nc(NCCc3c[nH]c4ccccc34)c3ncn(C(C)C)c3n2)c1
viability, T/C [1]: 152%
viability, T/C [2]: 91.7%
viability, T/C [3]: 96.2%
viability, T/C [4]: 89.5%
viability, T/C [21]: 63.5%
viability, T/C [22]: 51.4%
viability, T/C [5]: 116%
viability, T/C [6]: 125%
viability, T/C [7]: 81.6%
viability, T/C [8]: 94.9%
viability, T/C [23]: 81%
viability, T/C [24]: 38.1%
viability, T/C [9]: 137%
viability, T/C [10]: 112%
viability, T/C [11]: 119%
viability, T/C [12]: 86.1%
viability, T/C [25]: 79.2%
viability, T/C [26]: 64.2%
viability, T/C [13]: 108%
viability, T/C [14]: 80.2%
viability, T/C [15]: 86.3%
viability, T/C [16]: 69.8%
viability, T/C [27]: 43.4%
viability, T/C [28]: 58.5%
viability, T/C [17]: 3.67%
viability, T/C [18]: 4.08%
viability, T/C [19]: 3.62%
viability, T/C [20]: 2.73%
viability, T/C [29]: 3.64%
viability, T/C [30]: 3.08%

IC50 (second compound 0.1 µM): > 3 µM
IC50 (second compound 0.316 µM): 0.639 µM
IC50 (second compound 1 µM): 1.1 µM
IC50 (second compound 3.16 µM): 0.74 µM
IC50 (second compound 10 µM): < 0.00949 µM
Compound: O=C(C=Cn1cnc(-c2cc(C(F)(F)F)cc(C(F)(F)F)c2)n1)NNc1cnccn1 + Cc1cncc(-c2nc(NCCc3c[nH]c4ccccc34)c3ncn(C(C)C)c3n2)c1
viability, T/C [31]: 86.6%
viability, T/C [32]: 94.1%
viability, T/C [33]: 66.5%
viability, T/C [34]: 56.2%
viability, T/C (second compound 0.1 µM, first compound 0.949 µM): 53.2%
viability, T/C (second compound 0.1 µM, first compound 3 µM): 44.3%
viability, T/C [35]: 95.5%
viability, T/C [36]: 90.8%
viability, T/C [37]: 110%
viability, T/C [38]: 64.9%
viability, T/C (second compound 0.316 µM, first compound 0.949 µM): 47.1%
viability, T/C (second compound 0.316 µM, first compound 3 µM): 37.3%
viability, T/C [39]: 112%
viability, T/C [40]: 94.7%
viability, T/C [41]: 80.7%
viability, T/C [42]: 79.7%
viability, T/C (second compound 1 µM, first compound 0.949 µM): 50.4%
viability, T/C (second compound 1 µM, first compound 3 µM): 31.4%
viability, T/C [43]: 120%
viability, T/C [44]: 103%
viability, T/C [45]: 93.1%
viability, T/C [46]: 60.6%
viability, T/C (second compound 3.16 µM, first compound 0.949 µM): 42.3%
viability, T/C (second compound 3.16 µM, first compound 3 µM): 47.6%
viability, T/C [47]: 16.9%
viability, T/C [48]: 7.37%
viability, T/C [49]: 15%
viability, T/C [50]: 20.5%
viability, T/C (second compound 10 µM, first compound 0.949 µM): 22.1%
viability, T/C (second compound 10 µM, first compound 3 µM): 25.8%

More lines, now with the values behind:

Compound: CC1COCCN1c1cc(C2(S(C)(=N)=O)CC2)nc(-c2ccnc3[nH]ccc23)n1 (stereo not given) + Cc1cncc(-c2nc(NCCc3c[nH]c4ccccc34)c3ncn(C(C)C)c3n2)c1
IC50 (second compound 0.1 µM): > 10 µM
IC50 (second compound 0.316 µM): > 10 µM
IC50 (second compound 1 µM): > 10 µM
IC50 (second compound 3.16 µM): > 10 µM
IC50 (second compound 10 µM): < 0.0316 µM
viability, T/C [1]: 112%
viability, T/C [2]: 126%
viability, T/C [3]: 90.9%
viability, T/C [4]: 93.4%
viability, T/C [21]: 93.2%
viability, T/C [22]: 74.2%
viability, T/C [5]: 98.4%
viability, T/C [6]: 127%
viability, T/C [7]: 127%
viability, T/C [8]: 110%
viability, T/C [23]: 70.2%
viability, T/C [24]: 86.7%
viability, T/C [9]: 111%
viability, T/C [10]: 109%
viability, T/C [11]: 108%
viability, T/C [12]: 96.4%
viability, T/C [25]: 87.5%
viability, T/C [26]: 73.5%
viability, T/C [13]: 80.5%
viability, T/C [14]: 92.5%
viability, T/C [15]: 89.8%
viability, T/C [16]: 109%
viability, T/C [27]: 87.1%
viability, T/C [28]: 81.1%
viability, T/C [17]: 8.69%
viability, T/C [18]: 13.3%
viability, T/C [19]: 17.8%
viability, T/C [20]: 14.7%
viability, T/C [29]: 8.67%
viability, T/C [30]: 5.3%

Compound: Nc1ncn(C2CC(O)C(CO)S2)c(=O)n1 (stereo not given) + Cc1cncc(-c2nc(NCCc3c[nH]c4ccccc34)c3ncn(C(C)C)c3n2)c1
IC50 (second compound 0.1 µM): > 0.3 µM
IC50 (second compound 0.316 µM): > 0.3 µM
IC50 (second compound 1 µM): > 0.3 µM
IC50 (second compound 3.16 µM): > 0.3 µM
IC50 (second compound 10 µM): < 0.000949 µM
viability, T/C (second compound 0.1 µM, first compound 0.000949 µM): 122%
viability, T/C (second compound 0.1 µM, first compound 0.003 µM): 113%
viability, T/C [31]: 122%
viability, T/C [32]: 95.6%
viability, T/C [33]: 118%
viability, T/C [34]: 126%
viability, T/C (second compound 0.316 µM, first compound 0.000949 µM): 113%
viability, T/C (second compound 0.316 µM, first compound 0.003 µM): 102%
viability, T/C [35]: 114%
viability, T/C [36]: 99%
viability, T/C [37]: 129%
viability, T/C [38]: 130%
viability, T/C (second compound 1 µM, first compound 0.000949 µM): 92.1%
viability, T/C (second compound 1 µM, first compound 0.003 µM): 134%
viability, T/C [39]: 103%
viability, T/C [40]: 111%
viability, T/C [41]: 131%
viability, T/C [42]: 126%
viability, T/C (second compound 3.16 µM, first compound 0.000949 µM): 113%
viability, T/C (second compound 3.16 µM, first compound 0.003 µM): 99.5%
viability, T/C [43]: 130%
viability, T/C [44]: 98.2%
viability, T/C [45]: 94.9%
viability, T/C [46]: 120%
viability, T/C (second compound 10 µM, first compound 0.000949 µM): 12.2%
viability, T/C (second compound 10 µM, first compound 0.003 µM): 16.9%
viability, T/C [47]: 9.06%
viability, T/C [48]: 13.4%
viability, T/C [49]: 11.2%
viability, T/C [50]: 10.7%
